Laboratory results reported in patent US10821142B2, “Cancer treatment and diagnosis” (priority 2015, dated 2020).

Key:
colon = conditions: mice; single injection of AOM followed by DSS via drinking water; cited from earlier work
type I IFN production = assay: IFNB induction (qPCR) in normal and colon cancer cells treated with AOM or DMH; assay type: cell-based, human; conditions: 15 mM for 20 hours
Experimental: FIG. 22. Normal and colon cancer cells were treated with AOM or DMH at 15 mM for 20 hours. IFNB induction was analyzed by qPCR. STING, IRF3 and NF-kB translocation was examined: +, translocation; −, no translocation.
The question arises as to why the STING-signaling pathway may be inhibited in colon adenocarcinoma. Recently, it was shown that STING-deficient cells and mice are sensitive to AOM-induced DNA damage. In this situation, the STING pathway may play a role in the DNA-damage response pathway, to induce the production of cytokines which facilitate tissue repair or damaged cell removal (Chatzinikolaou et al., 2014; Kidane et al., 2014; Lord and Ashworth, 2012). As such, innate immune induction of CA cells in response to DNA damaging agents was examined. […] Thus, the inhibition of the STING pathway may enable DNA damaged cells, harboring mutations, to escape part of the DNA damage response and the immune surveillance machinery to progress into a tumorigenic state.

[1] = tested on: STING-dependent genes in FHC cells; assay: qPCR of Cxcl10 in human colon epithelial cells (FHC) treated with AOM; assay type: cell-based; conditions: FHC treated with RNAi to STING
Experimental: (§1) FIGS. 1A-1E show activation of STING-dependent genes by azoxymethane (AOM) (FIG. 1A) Gene array analysis of Wild type (WT) and STING deficient (SKO) mouse embryonic fibroblasts (MEFs) treated with AOM at 0.14 mM for 8 hours (Left) and 1,2-dimethylhydrazine (DMH) at 1 mM for 8 hours (Right). Highest variable genes are shown. Rows represent individual genes; columns represent individual samples. Grayscale indicates transcript levels below, equal to, or above the mean. Scale represents the intensity of gene expression (log 2 scale ranges between −2.4 and 2.4). (FIG. 1B) qPCR analysis of Cxcl10 and Ifit3 in MEFs treated with AOM and DMH same as FIG. 1A. (FIG. 1C) qPCR analysis of Cxcl10 in Human epithelial cell (FHC) treated with AOM and DMH at 1 mM for 24 hours. (FIG. 1D) FHC cells were transfected with STING or control siRNA for 72 hours followed by AOM and DMH treatment same as FIG. 1C, and were then subjected to Cxcl0 mRNA expression (Left). STING expression level after siRNA treatment was determined by qPCR (Right). […] (FIG. 1E) STING Immunohistochemistry staining of the colon tissue from WT and SKO mice (Left) and Human. All images were shown at original magnification, 200×.
Towards these objectives, the AOM/DSS model, as described above, was utilized and analyzed the effects of AOM and precursor DMH upon STING signaling. […]

[2] = tested on: STING-dependent genes in murine embryonic fibroblasts; assay: Gene array and qPCR of WT and SKO MEFs treated with AOM or DMH; assay type: cell-based, mouse; conditions: AOM 0.14 mM for 8 hours
Experimental: as §1
Towards these objectives, the AOM/DSS model, as described above, was utilized and analyzed the effects of AOM and precursor DMH upon STING signaling. Principally, wild type (WT) or STING-deficient (SKO) murine embryonic fibroblasts (MEF) were treated in vitro with DMH or metabolite AOM for 8 hours and microarray analysis performed to analyze the consequences to gene expression. […] The observed STING-dependent gene expression was confirmed following RT-PCR analysis of select mRNA such as Cxcl10 and IFIT3 (FIG. 1B). […] Thus, the DNA damaging agent DMH/AOM can invoke STING-dependent signaling.
Total RNA was isolated from cells or tissues with RNeasy Mini kit (74104, Qiagen, Valencia, Calif.). RNA quality was analyzed by Bionalyzer RNA 6000 Nano (Agilent Technologies, Santa Clara Calif.). […]

IRF3/NF-κB translocation = assay: Immunofluorescence of IRF3/NF-κB translocation in FHC treated with DMH/AOM; assay type: cell-based, human; conditions: 3 mM for 48 hours
Experimental: FIGS. 8A-8C show fluorescence microscopy analysis (related to FIG. 1) of DAPI staining in WT and SKO MEFs treated with 3 mM of AOM of 3 mM of DMH (FIG. 8A) and anti-dsDNA staining and the ration of cytoplasm to nucleus (FIG. 8B) in Human normal colon epithelial cells (FHC) treated with 3 mM of AOM or 3 mM of DMH for 48 hours. (FIG. 8C) Immunofluorescence microscopy analysis of FHC treated with AOM and DMH sane as FIG. 8A for 48 hours using p65 or IRF3 antibody. Images shown at original magnification, 160×.
To start determining the mechanisms underlining the cause of DMH/AOM-induced STING activity, MEF or FHC cells were treated with these drugs and observed by two different approaches, DAPI staining and immunofluorescence (IF) using anti-dsDNA antibody, the leakage of DNA into the cytosol (FIGS. 8A and 8B). Cytosolic DNA activates STING and stimulates STING/TBK1 trafficking via autophagy to endosomal regions harboring the transcription factors IRF3 and NF-κB, which triggers cytokine production. […]
Cells were cultured and treated in their appropriate media on Lab-Tek II chamber slides. […] Immunostaining was performed with rabbit-anti-STING polyclonal followed by fluorescence conjugated secondary antibodies (FITC-goat-anti-rabbit) (Invitrogen). […]

For `CN=[N+](C)[O-]` [AOM, Azoxymethane], the colon cancer induced (colon) is given as about 100%, the “production of type I IFN” value (type I IFN production; CA cells with defective STING activated IRF3 or NF-kB activity) is given as “unable to generate type I IFN” and the “production of type I IFN” value (type I IFN production; normal colon epithelial (CCD841) and LS123) is given as “able to induce the production of type I IFN”. For the same molecule, the “production of Cxcl10” value [1] was “similarly reduced”, the “mRNA production of innate immune related genes” value ([2]; MEFs lacking STING (SKO)) was “marked decrease in the production of the same genes” and the “mRNA production of innate immune related genes” value ([2]; WT MEFs) was “activated mRNA production of a wide array of innate immune related genes”. For the same molecule, the “translocation of IRF3/NF-κB” value (IRF3/NF-κB translocation) was “could instigate the translocation of IRF3/NF-κB”.
